Tested on: MDA-MB-231 cells
Test: Cell proliferation assay (CellTiter-Glo), MDA-MB-231
Type: cell-based
Settings: 72 h treatment, Celltiter-Glo luminescence
Experimental: Example 238: Cell Proliferation Assay
MDA-MB-231 and EVSA-T cells (10000 cells/well) were plated onto 96-well plates (Corning, Cat #3917) in 95 μL of medium (RPMI-1640 containing 10% FBS and MEM containing 10% FBS, respectively). Compounds with various concentrations ([…]) were added to the wells. After treatment for 72 h, 30 μL of Celltiter-Glo reagent (Promega, Cat #G7573) was added and incubated at room temperature for 15 min, then the luminescent signal was determined using a microplate reader (Biotek, SynergyH1). The inhibitor dose-response curves were analyzed using normalized IC50 regression curve fitting with control based normalization.

SMILES | IC50 (Homo sapiens, MDA-MB-231, 72 h) [nM] | IC50 [nM]
C[C@@H]1CN(CC(=O)N2CC(C)(C)c3c2cc(Cc2ccc(F)cc2)c2nc(C(=O)O)nn32)[C@@H](CN2CCOC[C@H]2C)CN1 [Compound 197, 4-(4-fluorobenzyl)-8,8-dimethyl-6-(2-((2R,5R)-5-methyl-2-(((R)-3-methylmorpholino)methyl)piperazin-1-yl)acetyl)-7,8-dihydro-6H-pyrrolo[2,3-e][1,2,4]triazolo[1,5-a]pyridine-2-carboxylic acid] | > 10000 | 
C[C@@H]1CN(CC(=O)N2CC(C)(C)c3c2cc(Cc2ccc(F)cc2)c2nc(C(F)(F)F)cn32)[C@@H](CN2CCN(CC#N)C[C@H]2C)CN1 [Compound 175, 2-((R)-4-(((2R,5R)-1-(2-(4-(4-fluorobenzyl)-8,8-dimethyl-2-(trifluoromethyl)-7,8-dihydro-6H-imidazo[1,2-a]pyrrolo[2,3-e]pyridin-6-yl)-2-oxoethyl)-5-methylpiperazin-2-yl)methyl)-3-methylpiperazin-1-yl)acetonitrile] | 120 | 
C[C@@H]1CN(CC(=O)N2CC(C)(C)c3c2cc(Cc2ccc(F)cc2)c2scnc32)[C@@H](CN2CCOC[C@H]2C)CN1 [Example 28, 1-(4-(4-fluorobenzyl)-8,8-dimethyl-7,8-dihydro-6H-thiazolo[4,5-e]indol-6-yl)-2-((2R,5R)-5-methyl-2-(((R)-3-methylmorpholino)methyl)piperazin-1-yl)ethan-1-one] | 330 | 
C[C@@H]1CN(CC(=O)N2CC(C)(C)c3c2cc(Cc2ccc(F)cc2)c2nc(C(=O)O)cn32)[C@@H](CN2CCOC[C@H]2C)CN1 [Compound 117, 4-(4-fluorobenzyl)-8,8-dimethyl-6-(2-((2R,5R)-5-methyl-2-(((R)-3-methylmorpholino)methyl)piperazin-1-yl)acetyl)-7,8-dihydro-6H-imidazo[1,2-a]pyrrolo[2,3-e]pyridine-2-carboxylic acid] | > 10000 | 
C[C@@H]1CN(CC(=O)N2CC(C)(C)c3c2cc(Cc2ccc(F)cc2)c2nn(Cc4ncccn4)c(=O)n32)[C@@H](CN2CCOC[C@H]2C)CN1 [Compound 221, 4-(4-fluorobenzyl)-8,8-dimethyl-6-(2-((2R,5R)-5-methyl-2-(((R)-3-methylmorpholino)methyl)piperazin-1-yl)acetyl)-2-(pyrimidin-2-ylmethyl)-2,6,7,8-tetrahydro-1H-pyrrolo[2,3-e][1,2,4]triazolo[4,3-a]pyridin-1-one] | 190 | 
CC(=O)N1CCN(C[C@H]2CN[C@H](C)CN2CC(=O)N2CC(C)(C)c3c2cc(Cc2ccc(F)cc2)c2nc(C(F)(F)F)cn32)[C@H](C)C1 [Compound 174, 2-((2R,5R)-2-(((R)-4-acetyl-2-methylpiperazin-1-yl)methy 1)-5-methylpiperazin-1-yl)-1-(4-(4-fluorobenzyl)-8,8-dimethyl-2-(trifluoromethyl)-7,8-dihydro-6H-imidazo[1,2-a]pyrrolo[2,3-e]pyridin-6-yl)ethan-1-one] | 450 | 
CCc1nnc2c(Cc3ccc(F)cc3)cc3c(n12)C(C)(C)CN3C(=O)CN1C[C@@H](C)NC[C@@H]1CN1CCOC[C@H]1C [Compound 172, 1-(1-ethyl-4-(4-fluorobenzyl)-8,8-dimethyl-7,8-dihydro-6H-pyrrolo[2,3-e][1,2,4]triazolo[4,3-a]pyridin-6-yl)-2-((2R,5R)-5-methyl-2-(((R)-3-methylmorpholino)methyl)piperazin-1-yl)ethan-1-one] | 610 | 
C[C@@H]1CN(CC(=O)N2CC(C)(C)c3c2cc(Cc2ccc(F)cc2)c2c(Cl)cnn32)[C@@H](CN2CCOC[C@H]2C)CN1 [Compound 106, 1-(3-chloro-4-(4-fluorobenzyl)-8,8-dimethyl-7,8-dihydro-6H-pyrazolo[1,5-a]pyrrolo[2,3-e]pyridin-6-yl)-2-((2R,5R)-5-methyl-2-(((R)-3-methylmorpholino)methyl)piperazin-1-yl)ethan-1-one] | 390 | 
C[C@@H]1CN(CC(=O)N2CC(C)(C)c3c2cc(Cc2ccc(F)cc2)c2nc(N4CCNC4=O)nn32)[C@@H](CN2CCOC[C@H]2C)CN1 [Compound 248, 1-(4-(4-fluorobenzyl)-8,8-dimethyl-6-(2-((2R,5R)-5-methyl-2-(((R)-3-methylmorpholino)methyl)piperazin-1-yl)acetyl)-7,8-dihydro-6H-pyrrolo[2,3-e][1,2,4]triazolo[1,5-a]pyridin-2-yl)imidazolidin-2-one] | 47 | 
C[C@@H]1CN(CC(=O)N2CC(C)(C)c3c2cc(Cc2ccc(F)cc2)c2ncnn32)[C@@H](CN2CCN(C(N)=O)C[C@H]2C)CN1 [Compound 215, (R)-4-(((2R,5R)-1-(2-(4-(4-fluorobenzyl)-8,8-dimethyl-7,8-dihydro-6H-pyrrolo[2,3-e][1,2,4]triazolo[1,5-a]pyridin-6-yl)-2-oxoethyl)-5-methylpiperazin-2-yl)methyl)-3-methylpiperazine-1-carboxamide] | 430 | 
COC(=O)N1CCN(C[C@H]2CN[C@H](C)CN2CC(=O)N2CC(C)(C)c3c2cc(Cc2ccc(F)cc2)c2nn(CC(C)(C)O)c(=O)n32)[C@H](C)C1 [Compound 280, methyl (R)-4-(((2R,5R)-1-(2-(4-(4-fluorobenzyl)-2-(2-hydroxy-2-methylpropyl)-8,8-dimethyl-1-oxo-1,2,7,8-tetrahydro-6H-pyrrolo[2,3-e][1,2,4]triazolo[4,3-a]pyridin-6-yl)-2-oxoethyl)-5-methylpiperazin-2-yl)methyl)-3-methylpiperazine-1-carboxylate] | 68 | 
C[C@@H]1CN(CC(=O)N2CC(C)(C)c3c2cc(Cc2ccc(F)cc2)c2nc(N4C[C@@H](O)[C@H](O)C4)nn32)[C@@H](CN2CCOC[C@H]2C)CN1 [Compound 226, 1-(2-((3R,4R)-3,4-dihydroxypyrrolidin-1-yl)-4-(4-fluorobenzyl)-8,8-dimethyl-7,8-dihydro-6H-pyrrolo[2,3-e][1,2,4]triazolo[1,5-a]pyridin-6-yl)-2-((2R,5R)-5-methyl-2-(((R)-3-methylmorpholino)methyl)piperazin-1-yl)ethan-1-one] |  | 530
C[C@@H]1CN(CC(=O)N2CC(C)(C)c3c2cc(Cc2ccc(F)cc2)c2cnc(C4CCC4)n32)[C@@H](CN2CCOC[C@H]2C)CN1 [Example 6, 1-(1-cyclobutyl-4-(4-fluorobenzyl)-8,8-dimethyl-7,8-dihydro-6H-imidazo[1,5-a]pyrrolo[2,3-e]pyridin-6-yl)-2-((2R,5R)-5-methyl-2-(((R)-3-methylmorpholino)methyl)piperazin-1-yl)ethan-1-one] | 50 | 
C[C@@H]1CN(CC(=O)N2CC(C)(C)c3c2cc(N2CCNc4cc(F)ccc42)c2ncnn32)[C@@H](CN2CCOC[C@H]2C)CN1 [Compound 198, 1-(4-(6-fluoro-3,4-dihydroquinoxalin-1(2H)-yl)-8,8-dimethyl-7,8-dihydro-6H-pyrrolo[2,3-e][1,2,4]triazolo[1,5-a]pyridin-6-yl)-2-((2R,5R)-5-methyl-2-(((R)-3-methylmorpholino)methyl)piperazin-1-yl)ethan-1-one] | 1000 | 
C[C@@H]1CN(CC(=O)N2CC3(CCOCC3)c3c2cc(Cc2ccc(F)cc2)c2nc(C(F)(F)F)cn32)[C@@H](CN2CCOC[C@H]2C)CN1 [Compound 183, 1-(4-(4-fluorobenzyl)-2-(trifluoromethyl)-2′,3′,5′,6′-tetrahydrospiro[imidazo[1,2-a]pyrrolo[2,3-e]pyridine-8,4′-pyran]-6(7H)-yl)-2-((2R,5R)-5-methyl-2-(((R)-3-methylmorpholino)methyl)piperazin-1-yl)ethan-1-one] | 810 | 
